The assay relates to BDF1 mice, s.c. Lewis lung carcinoma, T/C %. The experiment in a line: NCI In Vivo Anticancer Drug Screen. Data for tumor model Lewis Lung Carcinoma (subcutaneous) in B6D2F1 (BDF1) mice. Put shortly: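 Tumor-bearing mice were treated with test compound, and either survival or tumor size was recorded. Values are the treated-group measurement divided by that of the vehicle-treated control group.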

The structures appear in SMILES notation. Where “and” joins values, the source holds several entries; their conditions need not be identical. Equal entries are not always repeated. Inconclusive results are not listed.

With `O=CN1CCOCC1`, the T/C is 90 % of control (endpoint: mean tumor weight, dose: 37.0 mg/kg/injection, schedule: Q01DX011 (ip), vehicle: saline, higher = larger tumour); 152 % of control (endpoint: mean tumor weight, dose: 55.0 mg/kg/injection, schedule: Q01DX011 (ip), vehicle: saline, higher = larger tumour); 103 % of control (endpoint: mean tumor weight, dose: 83.0 mg/kg/injection, schedule: Q01DX011 (ip), vehicle: saline, higher = larger tumour); 81 % of control (endpoint: mean tumor weight, dose: 250.0 mg/kg/injection, schedule: Q01DX011 (ip), vehicle: saline, higher = larger tumour); 100 % of control (endpoint: mean tumor weight, dose: 500.0 mg/kg/injection, schedule: Q01DX011 (ip), vehicle: saline, higher = larger tumour); 92 % of control (endpoint: mean tumor weight, dose: 1000.0 mg/kg/injection, schedule: Q01DX011 (ip), vehicle: saline, higher = larger tumour).

In the case of `N/C(=N\Cl)C(Cl)(Cl)Cl`, the T/C (endpoint: median survival time, dose: 6.25 mg/kg/injection, schedule: Q01DX009 (ip), vehicle: other, higher = longer survival) is 101 % of control; the T/C (endpoint: median survival time, dose: 12.5 mg/kg/injection, schedule: Q01DX009 (ip), vehicle: other, higher = longer survival) was 110 % of control; the T/C (endpoint: median survival time, dose: 25.0 mg/kg/injection, schedule: Q01DX009 (ip), vehicle: other, higher = longer survival) was 100 % of control; the T/C (endpoint: median survival time, dose: 50.0 mg/kg/injection, schedule: Q01DX009 (ip), vehicle: other, higher = longer survival) is 96 % of control.

For the molecule `C[C@@H]1CC[C@@]2(NC1)O[C@H]1C[C@H]3[C@@H]4CC=C5C[C@@H](O)CC[C@]5(C)[C@H]4CC[C@]3(C)[C@H]1[C@@H]2C`, the T/C is 73 % of control (endpoint: mean tumor weight, dose: 12.0 mg/kg/injection, schedule: Q01DX011 (sc), vehicle: steriod suspending solution, higher = larger tumour); 56 % of control and 59 % of control and 70 % of control (endpoint: mean tumor weight, dose: 16.6 mg/kg/injection, schedule: Q01DX011 (ip), vehicle: carboxymethylcellulose (CMC), higher = larger tumour); 75 % of control (endpoint: mean tumor weight, dose: 18.0 mg/kg/injection, schedule: Q01DX011 (sc), vehicle: steriod suspending solution, higher = larger tumour); 94 % of control (endpoint: mean tumor weight, dose: 40.0 mg/kg/injection, schedule: Q01DX011 (sc), vehicle: steriod suspending solution, higher = larger tumour); 97 % of control (endpoint: mean tumor weight, dose: 50.0 mg/kg/injection, schedule: Q01DX011 (ip), vehicle: carboxymethylcellulose (CMC), higher = larger tumour); 92 % of control (endpoint: mean tumor weight, dose: 54.0 mg/kg/injection, schedule: Q01DX011 (sc), vehicle: steriod suspending solution, higher = larger tumour). The T/C (endpoint: mean tumor weight, dose: 80.0 mg/kg/injection, schedule: Q01DX011 (sc), vehicle: steriod suspending solution, higher = larger tumour) is 119 % of control; the T/C (endpoint: mean tumor weight, dose: 100.0 mg/kg/injection, schedule: Q01DX011 (sc), vehicle: steriod suspending solution, higher = larger tumour) is 83 % of control; the T/C (endpoint: mean tumor weight, dose: 200.0 mg/kg/injection, schedule: Q01DX011 (sc), vehicle: steriod suspending solution, higher = larger tumour) was 58 % of control; the T/C (endpoint: mean tumor weight, dose: 400.0 mg/kg/injection, schedule: Q01DX011 (sc), vehicle: steriod suspending solution, higher = larger tumour) is 104 % of control.

For `CC(=O)NNC(=O)c1ccccn1`, the T/C (endpoint: median survival time, dose: 25.0 mg/kg/injection, schedule: Q01DX009 (ip), vehicle: Klucel (hydroxypropylcellulose) (HPC), higher = longer survival) is 112 % of control; the T/C (endpoint: median survival time, dose: 100.0 mg/kg/injection, schedule: Q01DX009 (ip), vehicle: Klucel (hydroxypropylcellulose) (HPC), higher = longer survival) is 102 % of control; the T/C (endpoint: median survival time, dose: 200.0 mg/kg/injection, schedule: Q01DX009 (ip), vehicle: Klucel (hydroxypropylcellulose) (HPC), higher = longer survival) is 115 % of control.

With `COC1CCC(NC(=O)N(CCCl)N=O)CC1` (centres undefined), the T/C is 121 % of control (endpoint: median survival time, dose: 16.0 mg/kg/injection, schedule: Q01DX001 (ip), vehicle: saline with Tween-80, higher = longer survival) and 111 % of control (endpoint: median survival time, dose: 82.0 mg/kg/injection, schedule: Q01DX001 (ip), vehicle: saline with Tween-80, higher = longer survival).

With `CC1([CH2][Hg][I])COCC([CH2][Hg][I])O1` (centres undefined), the T/C was 63 % of control (endpoint: mean tumor weight, dose: 5.0 mg/kg/injection, schedule: Q01DX011 (ip), vehicle: saline, higher = larger tumour); 42 % of control (endpoint: mean tumor weight, dose: 10.0 mg/kg/injection, schedule: Q01DX011 (ip), vehicle: saline, higher = larger tumour); 52 % of control (endpoint: mean tumor weight, dose: 20.0 mg/kg/injection, schedule: Q01DX011 (ip), vehicle: saline, higher = larger tumour); 39 % of control (endpoint: mean tumor weight, dose: 40.0 mg/kg/injection, schedule: Q01DX011 (ip), vehicle: saline, higher = larger tumour).

In the case of `O=P(N1CC1)(N1CC1)N1CC1`, the T/C (endpoint: mean tumor weight, dose: 0.2 mg/kg/injection, schedule: Q01DX011 (ip), vehicle: other, higher = larger tumour) was 90 % of control; the T/C (endpoint: mean tumor weight, dose: 0.4 mg/kg/injection, schedule: Q01DX011 (ip), vehicle: other, higher = larger tumour) was 62 % of control; the T/C (endpoint: mean tumor weight, dose: 0.8 mg/kg/injection, schedule: Q01DX011 (ip), vehicle: other, higher = larger tumour) was 58 % of control and 69 % of control; the T/C (endpoint: mean tumor weight, dose: 1.3 mg/kg/injection, schedule: Q01DX011 (ip), vehicle: other, higher = larger tumour) is 37 % of control and 45 % of control and 62 % of control; the T/C (endpoint: mean tumor weight, dose: 2.0 mg/kg/injection, schedule: Q01DX011 (ip), vehicle: other, higher = larger tumour) was 70 % of control.

In the case of `O=NN(CCCl)C(=O)NC1CSCSC1`, the T/C (endpoint: median survival time, dose: 1.56 mg/kg/injection, schedule: Q01DX009 (ip), vehicle: saline with Tween-80, higher = longer survival) is 106 % of control; the T/C (endpoint: median survival time, dose: 3.12 mg/kg/injection, schedule: Q01DX009 (ip), vehicle: saline with Tween-80, higher = longer survival) is 104 % of control; the T/C (endpoint: median survival time, dose: 4.7 mg/kg/injection, schedule: Q04DX004 (ip), vehicle: saline with Tween-80, higher = longer survival) is 95 % of control; the T/C (endpoint: median survival time, dose: 5.0 mg/kg/injection, schedule: Q01DX001 (ip), vehicle: saline with Tween-80, higher = longer survival) is 116 % of control; the T/C (endpoint: median survival time, dose: 6.25 mg/kg/injection, schedule: Q01DX009 (ip), vehicle: saline with Tween-80, higher = longer survival) was 96 % of control; the T/C (endpoint: median survival time, dose: 7.0 mg/kg/injection, schedule: Q01DX001 (ip), vehicle: saline with Tween-80, higher = longer survival) is 117 % of control. The T/C is, setting by setting: (endpoint: median survival time, dose: 11.0 mg/kg/injection, schedule: Q04DX004 (ip), vehicle: saline with Tween-80, higher = longer survival) 112 % of control; (endpoint: median survival time, dose: 12.5 mg/kg/injection, schedule: Q01DX009 (ip), vehicle: saline with Tween-80, higher = longer survival) 109 % of control; (endpoint: median survival time, dose: 16.5 mg/kg/injection, schedule: Q04DX004 (ip), vehicle: saline with Tween-80, higher = longer survival) 71 % of control; (endpoint: median survival time, dose: 23.0 mg/kg/injection, schedule: Q01DX001 (ip), vehicle: saline with Tween-80, higher = longer survival) 163 % of control; (endpoint: median tumor weight (est.), dose: 7.3 mg/kg/injection, schedule: Q01DX001 (ip), vehicle: saline with Tween-80, higher = larger tumour) 97 % of control; (endpoint: median tumor weight (est.), dose: 15.0 mg/kg/injection, schedule: Q01DX001 (ip), vehicle: saline with Tween-80, higher = larger tumour) 32 % of control and 40 % of control. Also, the T/C (endpoint: median tumor weight (est.), dose: 22.0 mg/kg/injection, schedule: Q01DX001 (ip), vehicle: saline with Tween-80, higher = larger tumour) was 8 % of control.

Consider `CC1=CC(=O)N(NC(N)=O)C1=O`, for which the T/C (endpoint: median survival time, dose: 12.5 mg/kg/injection, schedule: Q01DX009 (ip), vehicle: saline, higher = longer survival) was 107 % of control; the T/C (endpoint: median survival time, dose: 25.0 mg/kg/injection, schedule: Q01DX009 (ip), vehicle: saline, higher = longer survival) is 104 % of control; the T/C (endpoint: median survival time, dose: 50.0 mg/kg/injection, schedule: Q01DX009 (ip), vehicle: saline, higher = longer survival) was 90 % of control.

For the molecule `C[C@H](N)C(=O)N[C@@H]1[C@H]2C(=C(O)C[C@@H](O)[C@@H]2O)C(=O)O[C@@H]1C`, the T/C (endpoint: mean tumor weight, dose: 300.0 mg/kg/injection, schedule: Q01DX011 (ip), vehicle: saline, higher = larger tumour) was 83 % of control; the T/C (endpoint: mean tumor weight, dose: 600.0 mg/kg/injection, schedule: Q01DX011 (ip), vehicle: saline, higher = larger tumour) was 60 % of control; the T/C (endpoint: mean tumor weight, dose: 1200.0 mg/kg/injection, schedule: Q01DX011 (ip), vehicle: saline, higher = larger tumour) was 89 % of control.

Take `Nc1nc(N)c2nc(CNc3ccc(C(=O)NC(CCC(=O)O)C(=O)O)cc3)cnc2n1` (centres undefined): the T/C by setting is: (endpoint: mean tumor weight, dose: 0.02 mg/kg/injection, schedule: Q01DX011 (ip), vehicle: other, higher = larger tumour) 94 % of control; (endpoint: mean tumor weight, dose: 0.04 mg/kg/injection, schedule: Q01DX011 (ip), vehicle: other, higher = larger tumour) 103 % of control; (endpoint: mean tumor weight, dose: 0.08 mg/kg/injection, schedule: Q01DX011 (ip), vehicle: other, higher = larger tumour) 97 % of control; (endpoint: mean tumor weight, dose: 2.5 micrograms/kg/injection, schedule: Q01DX011 (ip), vehicle: saline, higher = larger tumour) 76 % of control; (endpoint: mean tumor weight, dose: 5.0 micrograms/kg/injection, schedule: Q01DX011 (ip), vehicle: saline, higher = larger tumour) 98 % of control; (endpoint: mean tumor weight, dose: 20.0 micrograms/kg/injection, schedule: Q01DX011 (ip), vehicle: saline, higher = larger tumour) 100 % of control.

The values above are taken from PubChem BioAssay AID270 (DTP/NCI, 2004).
